Test results as given in patent US10479786B2, “Protein kinase inhibitors” (Princeton Drug Discovery Inc, priority 2016, dated 2019).

Assays:
YES = biological target: T1, YES (Homo sapiens, UniProt P07947); experiment: Off-chip Mobility Shift Assay, kinase inhibition; type: biochemical; details: recombinant YES; for inhibition at 0.001 µM: at 1 nM; for inhibition at 0.01 µM: at 10 nM
T1 construct: purchased Carna Biosciences, Inc

TEC = biological target: T2, TEC (Homo sapiens, UniProt P42680); experiment: Off-chip Mobility Shift Assay, kinase inhibition; type: biochemical; details: at 1 nM; recombinant TEC
T2 construct: purchased Carna Biosciences, Inc
T2 sequence (P42680 1-631): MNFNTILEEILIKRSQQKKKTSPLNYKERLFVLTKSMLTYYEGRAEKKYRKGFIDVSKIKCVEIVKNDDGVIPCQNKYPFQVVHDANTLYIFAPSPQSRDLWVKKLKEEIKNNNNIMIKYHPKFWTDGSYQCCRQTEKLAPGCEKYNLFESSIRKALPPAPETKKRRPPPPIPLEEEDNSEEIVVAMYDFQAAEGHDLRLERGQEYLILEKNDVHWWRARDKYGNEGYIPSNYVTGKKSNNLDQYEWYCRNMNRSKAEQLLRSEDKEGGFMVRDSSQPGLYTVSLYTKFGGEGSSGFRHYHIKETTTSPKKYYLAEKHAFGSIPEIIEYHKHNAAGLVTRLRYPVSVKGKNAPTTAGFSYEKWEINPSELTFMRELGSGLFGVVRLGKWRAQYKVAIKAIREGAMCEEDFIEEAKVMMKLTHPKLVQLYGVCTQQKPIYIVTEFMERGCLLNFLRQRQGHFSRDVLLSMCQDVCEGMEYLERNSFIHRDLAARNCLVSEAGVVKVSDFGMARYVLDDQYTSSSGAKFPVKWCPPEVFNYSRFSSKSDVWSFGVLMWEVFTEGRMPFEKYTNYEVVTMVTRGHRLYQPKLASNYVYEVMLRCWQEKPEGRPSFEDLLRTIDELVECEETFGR

SRC = biological target: T3, SRC (Homo sapiens, UniProt P12931); experiment: Off-chip Mobility Shift Assay, kinase inhibition; type: biochemical; details: recombinant SRC; for inhibition at 0.001 µM: at 1 nM; for inhibition at 0.01 µM: at 10 nM
T3 construct: purchased Carna Biosciences, Inc

[1] = Metabolic stability in human liver microsomes; type: in vitro ADME; details: for metabolic stability compared to dasatinib: human liver microsomes; for In vitro t1/2: 1 μM, human liver microsomes 0.5 mg/mL, NADPH and UDPGA, 37° C.
Experimental: FIG. 1. Metabolic stability of compounds in human liver microsomal incubations. […] Concentrations at specified times were determined by LC-MS/MS.
The incubation reactions at various time points were quenched by adding 2× volumes of acetonitrile containing 100 nM reserpine. The quenched incubation samples were centrifuged at 4000 RPM for 10 min, and the supernatants injected for LC/MS/MS analysis. LC/MS/MS analysis was carried out on a AB Sciex 4000 Q Trap LC/MS/MS system coupled with Shimadzu Prominence UFLCXR 20 series (including a CBM-20A controller, two LC-20ADXR solvent delivery units, SIL-20AC HT autosampler, CTO-20A column oven, and a SPD-20A UV detector).

ABL = biological target: T4, ABL (Homo sapiens, UniProt P00519); experiment: Off-chip Mobility Shift Assay, kinase inhibition; type: biochemical; details: recombinant ABL; for inhibition at 0.001 µM: at 1 nM; for inhibition at 0.01 µM: at 10 nM
T4 construct: purchased Carna Biosciences, Inc

DDR2 = biological target: T5, DDR2 (Homo sapiens, UniProt Q16832); experiment: Off-chip Mobility Shift Assay, kinase inhibition; type: biochemical; details: at 10 nM; recombinant DDR2; read-out: inhibition
T5 construct: purchased Carna Biosciences, Inc
T5 sequence (Q16832 22-855): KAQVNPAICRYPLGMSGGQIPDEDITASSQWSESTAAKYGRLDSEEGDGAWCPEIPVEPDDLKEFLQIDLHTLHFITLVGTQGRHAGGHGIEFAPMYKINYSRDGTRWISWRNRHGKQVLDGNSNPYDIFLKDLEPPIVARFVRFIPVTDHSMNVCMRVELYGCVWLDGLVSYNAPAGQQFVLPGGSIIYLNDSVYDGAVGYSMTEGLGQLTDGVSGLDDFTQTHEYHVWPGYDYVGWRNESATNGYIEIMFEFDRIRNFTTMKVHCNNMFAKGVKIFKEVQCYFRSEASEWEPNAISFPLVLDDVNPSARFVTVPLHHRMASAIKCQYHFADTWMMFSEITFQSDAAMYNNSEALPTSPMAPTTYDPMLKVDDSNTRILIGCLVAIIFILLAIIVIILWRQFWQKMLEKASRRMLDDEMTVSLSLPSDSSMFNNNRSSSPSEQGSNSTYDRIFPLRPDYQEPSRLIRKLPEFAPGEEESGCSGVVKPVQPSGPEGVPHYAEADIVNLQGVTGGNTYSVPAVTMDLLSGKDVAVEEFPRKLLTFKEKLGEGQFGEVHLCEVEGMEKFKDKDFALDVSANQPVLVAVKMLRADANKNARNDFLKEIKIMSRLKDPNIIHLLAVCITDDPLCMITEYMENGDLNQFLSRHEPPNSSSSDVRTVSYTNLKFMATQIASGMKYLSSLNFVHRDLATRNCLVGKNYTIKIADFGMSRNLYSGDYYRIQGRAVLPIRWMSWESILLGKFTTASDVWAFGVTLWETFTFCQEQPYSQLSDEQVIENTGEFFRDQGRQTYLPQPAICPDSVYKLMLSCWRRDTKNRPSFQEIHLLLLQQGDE

FMS = biological target: T6, FMS (Homo sapiens, UniProt P07333); experiment: Off-chip Mobility Shift Assay, kinase inhibition; type: biochemical; details: at 10 nM; recombinant FMS
T6 construct: purchased Carna Biosciences, Inc

LCK = biological target: T7, LCK (Homo sapiens, UniProt P06239); experiment: Off-chip Mobility Shift Assay, kinase inhibition; type: biochemical; details: recombinant LCK; for inhibition at 0.001 µM: at 1 nM; for inhibition at 0.01 µM: at 10 nM
T7 construct: purchased Carna Biosciences, Inc

ABL(E255K) = biological target: T8, ABL(E255K) (Homo sapiens, UniProt P00519, E255K); experiment: Off-chip Mobility Shift Assay, kinase inhibition; type: biochemical; details: recombinant ABL(E255K); for inhibition at 0.001 µM: at 1 nM; for inhibition at 0.01 µM: at 10 nM
T8 construct: purchased Carna Biosciences, Inc

ARG = biological target: T9, ARG (Homo sapiens, UniProt P42684); experiment: Off-chip Mobility Shift Assay, kinase inhibition; type: biochemical; details: at 10 nM; recombinant ARG; read-out: inhibition
T9 construct: purchased Carna Biosciences, Inc
T9 sequence (P42684 whole entry): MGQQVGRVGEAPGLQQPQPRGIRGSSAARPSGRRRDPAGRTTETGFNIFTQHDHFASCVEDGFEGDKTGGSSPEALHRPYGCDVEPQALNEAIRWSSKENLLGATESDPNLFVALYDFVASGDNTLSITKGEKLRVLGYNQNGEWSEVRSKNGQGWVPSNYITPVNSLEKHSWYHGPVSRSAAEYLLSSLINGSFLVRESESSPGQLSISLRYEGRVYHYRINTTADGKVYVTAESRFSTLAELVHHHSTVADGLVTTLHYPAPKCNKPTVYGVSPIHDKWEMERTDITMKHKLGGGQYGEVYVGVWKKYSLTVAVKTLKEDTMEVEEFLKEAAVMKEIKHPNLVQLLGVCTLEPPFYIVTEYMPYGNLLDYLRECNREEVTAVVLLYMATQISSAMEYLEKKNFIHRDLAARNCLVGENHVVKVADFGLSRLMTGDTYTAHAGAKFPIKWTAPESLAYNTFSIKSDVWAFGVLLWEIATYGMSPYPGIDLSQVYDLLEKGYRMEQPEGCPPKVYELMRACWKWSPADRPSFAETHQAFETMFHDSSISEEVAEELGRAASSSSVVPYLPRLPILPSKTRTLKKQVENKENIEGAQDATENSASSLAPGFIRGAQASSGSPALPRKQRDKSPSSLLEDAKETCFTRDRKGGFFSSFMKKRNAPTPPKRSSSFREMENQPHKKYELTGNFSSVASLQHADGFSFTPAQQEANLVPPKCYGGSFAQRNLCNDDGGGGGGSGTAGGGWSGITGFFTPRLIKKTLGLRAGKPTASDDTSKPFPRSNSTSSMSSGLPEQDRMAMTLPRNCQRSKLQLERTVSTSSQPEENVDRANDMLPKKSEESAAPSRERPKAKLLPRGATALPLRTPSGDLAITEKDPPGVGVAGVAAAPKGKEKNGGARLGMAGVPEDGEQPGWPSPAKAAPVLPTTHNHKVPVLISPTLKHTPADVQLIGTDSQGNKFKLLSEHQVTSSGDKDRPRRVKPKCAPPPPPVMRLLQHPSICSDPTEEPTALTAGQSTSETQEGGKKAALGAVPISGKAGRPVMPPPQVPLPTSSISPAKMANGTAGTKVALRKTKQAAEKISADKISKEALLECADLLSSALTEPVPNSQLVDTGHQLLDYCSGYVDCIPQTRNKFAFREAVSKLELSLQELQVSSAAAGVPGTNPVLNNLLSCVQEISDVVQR

T3 sequence (P12931 whole entry): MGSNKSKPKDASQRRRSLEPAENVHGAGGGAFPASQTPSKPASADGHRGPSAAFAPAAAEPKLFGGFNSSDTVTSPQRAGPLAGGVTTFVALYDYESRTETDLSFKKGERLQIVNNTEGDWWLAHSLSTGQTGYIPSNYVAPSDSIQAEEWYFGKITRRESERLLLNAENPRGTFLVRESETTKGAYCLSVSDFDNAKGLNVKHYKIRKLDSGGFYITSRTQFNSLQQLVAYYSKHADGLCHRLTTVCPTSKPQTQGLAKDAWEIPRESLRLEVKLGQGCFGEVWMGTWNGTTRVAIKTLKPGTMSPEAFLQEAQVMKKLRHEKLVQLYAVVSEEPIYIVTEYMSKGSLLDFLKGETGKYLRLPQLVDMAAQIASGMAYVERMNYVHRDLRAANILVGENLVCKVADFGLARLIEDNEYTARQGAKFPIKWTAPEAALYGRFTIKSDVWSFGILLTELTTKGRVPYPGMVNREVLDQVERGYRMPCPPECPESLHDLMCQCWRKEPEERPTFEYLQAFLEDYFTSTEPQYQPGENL
T7 sequence (P06239 whole entry): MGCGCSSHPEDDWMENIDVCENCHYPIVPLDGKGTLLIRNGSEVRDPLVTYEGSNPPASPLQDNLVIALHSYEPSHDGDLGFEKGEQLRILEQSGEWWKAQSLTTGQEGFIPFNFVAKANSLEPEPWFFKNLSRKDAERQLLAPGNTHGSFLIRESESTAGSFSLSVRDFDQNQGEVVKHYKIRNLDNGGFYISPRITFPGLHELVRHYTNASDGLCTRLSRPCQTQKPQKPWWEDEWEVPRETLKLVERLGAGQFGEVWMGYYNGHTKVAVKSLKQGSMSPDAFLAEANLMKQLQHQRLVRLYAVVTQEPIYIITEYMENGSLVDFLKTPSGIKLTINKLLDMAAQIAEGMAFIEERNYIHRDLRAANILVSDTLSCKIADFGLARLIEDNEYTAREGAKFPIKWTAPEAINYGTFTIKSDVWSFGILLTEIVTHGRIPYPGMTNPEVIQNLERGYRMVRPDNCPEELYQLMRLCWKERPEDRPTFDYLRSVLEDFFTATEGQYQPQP
T4 sequence (P00519 whole entry): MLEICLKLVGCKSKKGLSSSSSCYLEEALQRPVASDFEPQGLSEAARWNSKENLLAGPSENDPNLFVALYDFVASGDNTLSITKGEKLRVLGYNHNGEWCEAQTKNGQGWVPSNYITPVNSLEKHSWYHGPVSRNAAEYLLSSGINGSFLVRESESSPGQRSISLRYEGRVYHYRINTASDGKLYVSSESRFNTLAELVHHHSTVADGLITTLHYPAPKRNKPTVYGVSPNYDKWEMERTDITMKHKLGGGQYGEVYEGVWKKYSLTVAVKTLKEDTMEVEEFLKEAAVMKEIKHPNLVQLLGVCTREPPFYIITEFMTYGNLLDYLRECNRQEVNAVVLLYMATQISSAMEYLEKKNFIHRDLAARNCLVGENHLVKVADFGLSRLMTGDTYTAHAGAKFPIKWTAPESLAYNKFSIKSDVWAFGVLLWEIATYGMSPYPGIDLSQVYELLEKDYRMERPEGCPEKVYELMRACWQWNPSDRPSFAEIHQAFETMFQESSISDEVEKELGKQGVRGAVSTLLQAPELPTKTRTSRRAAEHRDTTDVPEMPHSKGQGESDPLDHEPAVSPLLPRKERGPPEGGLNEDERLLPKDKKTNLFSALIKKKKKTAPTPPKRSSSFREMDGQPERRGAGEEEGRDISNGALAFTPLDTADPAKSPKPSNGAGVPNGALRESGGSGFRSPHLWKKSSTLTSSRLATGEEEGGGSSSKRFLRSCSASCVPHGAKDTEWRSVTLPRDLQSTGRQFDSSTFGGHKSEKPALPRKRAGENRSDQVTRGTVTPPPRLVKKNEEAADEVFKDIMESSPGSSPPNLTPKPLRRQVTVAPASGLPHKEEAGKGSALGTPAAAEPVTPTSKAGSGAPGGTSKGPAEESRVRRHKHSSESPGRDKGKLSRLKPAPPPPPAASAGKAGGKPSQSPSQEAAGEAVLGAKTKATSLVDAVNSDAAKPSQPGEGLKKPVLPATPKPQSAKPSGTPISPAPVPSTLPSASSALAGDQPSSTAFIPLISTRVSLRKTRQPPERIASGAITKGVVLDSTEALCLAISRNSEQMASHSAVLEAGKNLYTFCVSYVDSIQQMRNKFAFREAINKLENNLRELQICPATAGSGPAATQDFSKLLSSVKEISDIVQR
T6 sequence (P07333 20-972): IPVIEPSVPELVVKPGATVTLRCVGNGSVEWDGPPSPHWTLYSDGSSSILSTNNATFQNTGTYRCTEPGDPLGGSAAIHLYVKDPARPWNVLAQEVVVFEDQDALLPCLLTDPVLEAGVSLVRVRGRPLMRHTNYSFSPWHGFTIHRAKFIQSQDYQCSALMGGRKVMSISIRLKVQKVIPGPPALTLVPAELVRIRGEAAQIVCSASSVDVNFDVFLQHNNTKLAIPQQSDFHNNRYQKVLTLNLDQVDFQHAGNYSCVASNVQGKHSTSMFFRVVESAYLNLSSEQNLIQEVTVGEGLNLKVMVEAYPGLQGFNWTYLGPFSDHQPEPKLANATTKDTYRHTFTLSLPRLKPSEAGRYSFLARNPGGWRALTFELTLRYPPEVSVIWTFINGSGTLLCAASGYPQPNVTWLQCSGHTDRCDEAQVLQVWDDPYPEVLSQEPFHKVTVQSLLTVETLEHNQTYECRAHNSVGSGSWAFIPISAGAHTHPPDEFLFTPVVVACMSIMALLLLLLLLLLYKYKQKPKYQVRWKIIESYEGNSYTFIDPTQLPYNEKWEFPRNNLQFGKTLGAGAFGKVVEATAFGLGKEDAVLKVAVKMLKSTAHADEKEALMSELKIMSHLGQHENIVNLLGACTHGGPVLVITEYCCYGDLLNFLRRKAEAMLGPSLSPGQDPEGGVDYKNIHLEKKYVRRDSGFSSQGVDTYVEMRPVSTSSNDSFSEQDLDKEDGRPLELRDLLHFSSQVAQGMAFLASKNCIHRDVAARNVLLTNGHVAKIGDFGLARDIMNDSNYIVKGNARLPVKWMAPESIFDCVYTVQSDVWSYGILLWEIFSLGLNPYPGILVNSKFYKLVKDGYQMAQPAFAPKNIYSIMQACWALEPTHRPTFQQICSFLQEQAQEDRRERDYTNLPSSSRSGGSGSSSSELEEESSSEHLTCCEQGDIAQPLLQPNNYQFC
T1 sequence (P07947 whole entry): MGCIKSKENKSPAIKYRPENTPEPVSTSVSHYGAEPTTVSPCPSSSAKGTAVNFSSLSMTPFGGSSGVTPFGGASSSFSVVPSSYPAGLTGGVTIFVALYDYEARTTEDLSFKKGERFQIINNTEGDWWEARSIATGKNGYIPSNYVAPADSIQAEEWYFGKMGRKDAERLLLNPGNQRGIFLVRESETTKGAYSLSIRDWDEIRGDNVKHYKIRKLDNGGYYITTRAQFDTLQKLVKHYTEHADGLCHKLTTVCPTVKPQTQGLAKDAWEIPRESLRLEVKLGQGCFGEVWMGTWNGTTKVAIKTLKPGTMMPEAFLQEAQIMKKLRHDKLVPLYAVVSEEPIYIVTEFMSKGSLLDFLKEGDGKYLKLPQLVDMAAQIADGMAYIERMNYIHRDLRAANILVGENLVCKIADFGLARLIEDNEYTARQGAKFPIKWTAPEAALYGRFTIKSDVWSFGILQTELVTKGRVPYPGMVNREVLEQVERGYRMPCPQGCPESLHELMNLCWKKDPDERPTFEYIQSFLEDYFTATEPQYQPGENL
T8 sequence (P00519 whole entry E255K): as the sequence (P00519 whole entry) above, with E255K counted along it

inhibition at 0.001 µM (YES) [%] | inhibition at 0.01 µM (YES) [%] | inhibition at 0.001 µM (TEC) [%] | inhibition at 0.001 µM (SRC) [%] | inhibition at 0.01 µM (SRC) [%] | metabolic stability compared to dasatinib [1] | inhibition at 0.001 µM (ABL) [%] | inhibition at 0.01 µM (ABL) [%] | inhibition at 0.01 µM (DDR2) [%] | inhibition at 0.01 µM (FMS) [%] | inhibition at 0.001 µM (LCK) [%] | inhibition at 0.01 µM (LCK) [%] | inhibition at 0.001 µM (ABL(E255K)) [%] | inhibition at 0.01 µM (ABL(E255K)) [%] | inhibition at 0.01 µM (ARG) [%] | In vitro t1/2 [1] [h] | Structure (SMILES)
> 50 | > 50 | > 50 | > 50 | > 50 | significantly greater stability | > 50 | > 50 | > 50 | > 50 | > 50 | > 50 | > 50 | > 50 | > 50 | 0.983 | Cc1nc(Nc2ncc(C(=O)Nc3c(C)cccc3Cl)s2)cc(N2CC[C@@H](O)C2)n1 [Compound XI, N-(2-chloro-6-methylphenyl)-2-[[2-methyl-6-((R)-3-hydroxypyrrolidin-1-yl)pyrimidin-4-yl]amino]thiazole-5-carboxamide]
> 50 | > 50 | > 50 | > 50 | > 50 | significantly greater stability | > 50 | > 50 | > 50 | > 50 | > 50 | > 50 | > 50 | > 50 | > 50 | – | Cc1nc(Nc2ncc(C(=O)Nc3c(C)cccc3Cl)s2)cc(N2CC[C@H](N)C2)n1 [Compound XII, N-(2-chloro-6-methylphenyl)-2-[[2-methyl-6-((S)-3-aminopyrrolidin-1-yl)pyrimidin-4-yl]amino]thiazole-5-carboxamide]

The remaining lines, values behind:

Structure (SMILES) | inhibition at 0.001 µM (YES) [%] | inhibition at 0.01 µM (YES) [%] | inhibition at 0.001 µM (TEC) [%] | inhibition at 0.001 µM (SRC) [%] | inhibition at 0.01 µM (SRC) [%] | metabolic stability compared to dasatinib [1] | inhibition at 0.001 µM (ABL) [%] | inhibition at 0.01 µM (ABL) [%] | inhibition at 0.01 µM (DDR2) [%] | inhibition at 0.01 µM (FMS) [%] | inhibition at 0.001 µM (LCK) [%] | inhibition at 0.01 µM (LCK) [%] | inhibition at 0.001 µM (ABL(E255K)) [%] | inhibition at 0.01 µM (ABL(E255K)) [%] | inhibition at 0.01 µM (ARG) [%] | In vitro t1/2 [1] [h]
[2H]c1cc(C)c(NC(=O)c2cnc(Nc3cc(N4CC[C@@H](N)C4)nc(C)n3)s2)c(Cl)c1 [Compound VII, N-(2-chloro-4-deutero-6-methylphenyl)-2-[[2-methyl-6-((R)-3-aminopyrrolidin-1-yl)pyrimidin-4-yl]amino]thiazole-5-carboxamide] | > 50 | > 50 | > 50 | > 50 | > 50 | significantly greater stability | > 50 | > 50 | > 50 | > 50 | > 50 | > 50 | > 50 | > 50 | > 50 | –
[2H]c1cc(C)c(NC(=O)c2cnc(Nc3cc(N4CC[C@H](N)C4)nc(C)n3)s2)c(Cl)c1 [Compound VI, N-(2-chloro-4-dutero-6-methylphenyl)-2-[[2-methyl-6-((S)-3-aminopyrrolidin-1-yl)pyrimidin-4-yl]amino]thiazole-5-carboxamide] | > 50 | > 50 | > 50 | > 50 | > 50 | significantly greater stability | > 50 | > 50 | > 50 | > 50 | > 50 | > 50 | > 50 | > 50 | > 50 | –
[2H]c1cc(C)c(NC(=O)c2cnc(Nc3cc(N4CC[C@H](O)C4)nc(C)n3)s2)c(Cl)c1 [Compound IV, N-(2-chloro-4-deutero-6-methylphenyl)-2-[[2-methyl-6-((S)-3-hydroxypyrrolidin-1-yl)pyrimidin-4-yl]amino]thiazole-5-carboxamide] | > 50 | > 50 | > 50 | > 50 | > 50 | significantly greater stability | > 50 | > 50 | > 50 | > 50 | > 50 | > 50 | > 50 | > 50 | > 50 | 1.47
